The values below are quoted from earlier work in US9676702B2, “Methods for synthesizing amatoxin building block and amatoxins” (Heidelberg Pharma GmbH, priority 2012, dated 2017).

The term Kd denotes the concentration at which binding is half-saturated.

This data set deals with RNA-polymerase II (Homo sapiens, UniProt P24928+P30876). The settings on record: non-covalent complex; background statement, no method given; read-out: KD of the complex between amanitin and RNA-polymerase II.

On to amanitin, for which the equilibrium dissociation constant (Kd) was 3 nM.
